Reference: ChEMBL document CHEMBL5244273, “Tuberculosis: An Overview of the Immunogenic Response, Disease Progression, and Medicinal Chemistry Efforts in the Last Decade toward the Development of Potential Drugs for Extensively Drug-Resistant Tuberculosis Strains” (J Med Chem, 2021)
Converted amounts (≈) assume the structure as drawn.

Assays:
[1] = tested on: Mycobacterium tuberculosis; assay: Antimycobacterial activity against Mycobacterium tuberculosis H37Rv; assay type: functional
[2] = Cytotoxicity against HEK293T cells assessed as reduction in cell viability; assay type: toxicity, cell-based, HEK-293T; settings: human
[3] = tested on: Mycobacterium tuberculosis; assay: Antimycobacterial activity against non replicating Mycobacterium tuberculosis by broth dilution method; assay type: functional
[4] = tested on: Mycobacterium tuberculosis; assay: Antimycobacterial activity against Mycobacterium tuberculosis H37Rv ATCC 27294 by broth dilution method; assay type: functional
J774 = assay: Cytotoxicity against mouse J774 cells incubated for 24 hrs by MTT assay; assay type: toxicity, cell-based; settings: j774, 24 h
[5] = tested on: Mycobacterium tuberculosis; assay: Antitubercular activity against active stage of Mycobacterium tuberculosis H37Ra; assay type: functional
[6] = tested on: Mycobacterium tuberculosis; assay: Antitubercular activity against dormant stage of Mycobacterium tuberculosis H37Ra; assay type: functional
HeLa = assay: Cytotoxicity against human HeLa cells assessed as cell growth inhibition; assay type: functional
MCF7 = assay: Cytotoxicity against human MCF7 cells assessed as cell growth inhibition; assay type: functional
[7] = Cytotoxicity against HUVEC cells assessed as cell growth inhibition; assay type: toxicity, cell-based; settings: human
[8] = Selectivity index, ratio of GI50 for cytotoxicity against human HeLa cells to MIC for antitubercular activity against active stage of Mycobacterium tuberculosis H37Ra; assay type: toxicity, cell-based; settings: read-out: Selectivity Index
[9] = Selectivity index, ratio of GI50 for cytotoxicity against human HeLa cells to MIC for antitubercular activity against dormant stage of Mycobacterium tuberculosis H37Ra; assay type: toxicity, cell-based; settings: read-out: Selectivity Index
[10] = Selectivity index, ratio of GI50 for cytotoxicity against human MCF7 cells to MIC for antitubercular activity against active stage of Mycobacterium tuberculosis H37Ra; assay type: toxicity, cell-based; settings: read-out: Selectivity Index
[11] = Selectivity index, ratio of GI50 for cytotoxicity against human MCF7 cells to MIC for antitubercular activity against dormant stage of Mycobacterium tuberculosis H37Ra; assay type: toxicity, cell-based; settings: read-out: Selectivity Index
[12] = Selectivity index, ratio of GI50 for cytotoxicity against HUVEC cells to MIC for antitubercular activity against active stage of Mycobacterium tuberculosis H37Ra; assay type: toxicity, cell-based; settings: human, read-out: Selectivity Index
[13] = Selectivity index, ratio of GI50 for cytotoxicity against HUVEC cells to MIC for antitubercular activity against dormant stage of Mycobacterium tuberculosis H37Ra; assay type: toxicity, cell-based; settings: human, read-out: Selectivity Index

| SMILES | MIC90 [1] | MIC99 [1] | CC50 [2] | MIC [3] | MIC [4] | Activity (J774) | MIC [5] | MIC [6] | GI50 (HeLa) | GI50 (MCF7) | GI50 [7] | selectivity ratio [8] | selectivity ratio [9] | selectivity ratio [10] | selectivity ratio [11] | selectivity ratio [12] | selectivity ratio [13] |
| --- | --- | --- | --- | --- | --- | --- | --- | --- | --- | --- | --- | --- | --- | --- | --- | --- | --- |
| CC(=O)N1/C(=C/c2ccc(NC(C)C)cc2)C(=O)c2ccccc21 | > 20 µM | > 20 µM | 19 µM | – | – | – | – | – | – | – | – | – | – | – | – | – | – |
| Cc1ccc(OCc2cn(C[C@@]3(C)Cn4cc([N+](=O)[O-])nc4O3)nn2)cc1 | – | – | – | 2 µg/mL (≈ 5.4 µM) | 1 µg/mL (≈ 2.7 µM) | > 40 µg/mL | – | – | – | – | – | – | – | – | – | – | – |
| CCc1ccc(OCc2cn(C[C@@]3(C)Cn4cc([N+](=O)[O-])nc4O3)nn2)cc1 | – | – | – | 2 µg/mL (≈ 5.2 µM) | 2 µg/mL (≈ 5.2 µM) | > 40 µg/mL | – | – | – | – | – | – | – | – | – | – | – |
| O=C(OCc1ccccc1)c1ccsc1NC(=O)[C@@H]1CCCN1 | – | – | – | – | – | – | 21.1 µg/mL (≈ 63.9 µM) | 3.76 µg/mL (≈ 11.4 µM) | > 250 µg/mL | > 250 µg/mL | > 250 µg/mL | > 11.8 | > 66.5 | > 11.8 | > 66.5 | > 11.8 | > 66.5 |
| C[C@]1(Cn2cc(CN3CCOCC3)nn2)Cn2cc([N+](=O)[O-])nc2O1 | – | – | – | 1 µg/mL (≈ 2.86 µM) | 2 µg/mL (≈ 5.72 µM) | > 40 µg/mL | – | – | – | – | – | – | – | – | – | – | – |
| Cc1cccc(OCc2cn(C[C@@]3(C)Cn4cc([N+](=O)[O-])nc4O3)nn2)c1 | – | – | – | 0.5 µg/mL (≈ 1.35 µM) | 0.5 µg/mL (≈ 1.35 µM) | > 40 µg/mL | – | – | – | – | – | – | – | – | – | – | – |
| Cc1ccc(SCc2cn(C[C@@]3(C)Cn4cc([N+](=O)[O-])nc4O3)nn2)cc1 | – | – | – | 1 µg/mL (≈ 2.59 µM) | 2 µg/mL (≈ 5.18 µM) | > 40 µg/mL | – | – | – | – | – | – | – | – | – | – | – |
| O=C(OCC(F)(F)F)c1ccsc1NC(=O)[C@@H]1CCCN1 | – | – | – | – | – | – | 8.23 µg/mL (≈ 25.5 µM) | 1.08 µg/mL (≈ 3.35 µM) | 109 µg/mL (≈ 339 µM) | 89.7 µg/mL (≈ 278 µM) | > 250 µg/mL | 13.3 | 101 | 10.9 | 83 | > 30.4 | > 231 |
| CCOC(=O)c1ccsc1NC(=O)[C@@H]1CCCN1 | – | – | – | – | – | – | 9.08 µg/mL (≈ 33.8 µM) | 7.62 µg/mL (≈ 28.4 µM) | 35.3 µg/mL (≈ 132 µM) | > 250 µg/mL | > 250 µg/mL | 3.88 | 4.63 | > 27.5 | > 32.8 | > 27.5 | > 32.8 |
| C=CCOC(=O)c1ccsc1NC(=O)[C@@H]1CCCN1 | – | – | – | – | – | – | 23.2 µg/mL (≈ 82.8 µM) | 2.03 µg/mL (≈ 7.24 µM) | 94.9 µg/mL (≈ 338 µM) | 96.6 µg/mL (≈ 345 µM) | 149 µg/mL (≈ 531 µM) | 4.08 | 46.7 | 4.16 | 47.6 | 6.41 | 73.3 |
| C[C@]1(Cn2cc(COc3cccc(F)c3)nn2)Cn2cc([N+](=O)[O-])nc2O1 | – | – | – | 2 µg/mL (≈ 5.34 µM) | 1 µg/mL (≈ 2.67 µM) | > 40 µg/mL | – | – | – | – | – | – | – | – | – | – | – |
| O=C(Oc1ccccc1)c1ccsc1NC(=O)[C@@H]1CCCN1 | – | – | – | – | – | – | 24.7 µg/mL (≈ 78.2 µM) | 23.7 µg/mL (≈ 74.8 µM) | > 250 µg/mL | > 250 µg/mL | > 250 µg/mL | > 10.1 | > 10.6 | > 10.1 | > 10.6 | > 10.1 | > 10.6 |
| Cc1ccccc1OCc1cn(C[C@@]2(C)Cn3cc([N+](=O)[O-])nc3O2)nn1 | – | – | – | 2 µg/mL (≈ 5.4 µM) | 0.5 µg/mL (≈ 1.35 µM) | > 40 µg/mL | – | – | – | – | – | – | – | – | – | – | – |
| C[C@]1(Cn2cc(COc3ccccc3F)nn2)Cn2cc([N+](=O)[O-])nc2O1 | – | – | – | 0.5 µg/mL (≈ 1.34 µM) | 0.25 µg/mL (≈ 0.668 µM) | > 40 µg/mL | – | – | – | – | – | – | – | – | – | – | – |
| C[C@]1(Cn2cc(COc3ccc(Br)cc3)nn2)Cn2cc([N+](=O)[O-])nc2O1 | – | – | – | 0.25 µg/mL (≈ 0.574 µM) | 0.12 µg/mL (≈ 0.276 µM) | > 40 µg/mL | – | – | – | – | – | – | – | – | – | – | – |
| C[C@]1(Cn2cc(COc3cccc(Cl)c3)nn2)Cn2cc([N+](=O)[O-])nc2O1 | – | – | – | 1 µg/mL (≈ 2.56 µM) | 0.5 µg/mL (≈ 1.28 µM) | > 40 µg/mL | – | – | – | – | – | – | – | – | – | – | – |
| CC(C)c1ccc(OCc2cn(C[C@@]3(C)Cn4cc([N+](=O)[O-])nc4O3)nn2)cc1 | – | – | – | 1 µg/mL (≈ 2.51 µM) | 0.5 µg/mL (≈ 1.25 µM) | > 40 µg/mL | – | – | – | – | – | – | – | – | – | – | – |
| C[C@]1(Cn2cc(COc3ccc(C(F)(F)F)cc3)nn2)Cn2cc([N+](=O)[O-])nc2O1 | – | – | – | 2 µg/mL (≈ 4.71 µM) | 1 µg/mL (≈ 2.36 µM) | > 40 µg/mL | – | – | – | – | – | – | – | – | – | – | – |
| COC(=O)c1sccc1NC(=O)[C@@H]1CCCN1 | – | – | – | – | – | – | 15.9 µg/mL (≈ 62.4 µM) | 6.74 µg/mL (≈ 26.5 µM) | 90.4 µg/mL (≈ 355 µM) | 163 µg/mL (≈ 641 µM) | 91.3 µg/mL (≈ 359 µM) | 5.7 | 13.4 | 10.3 | 24.2 | 5.75 | 13.6 |
| O=C(OCC(Cl)(Cl)Cl)c1ccsc1NC(=O)[C@@H]1CCCN1 | – | – | – | – | – | – | 20.4 µg/mL (≈ 54.9 µM) | 16.1 µg/mL (≈ 43.3 µM) | > 250 µg/mL | > 250 µg/mL | > 250 µg/mL | > 12.3 | > 15.5 | > 12.3 | > 15.5 | > 12.3 | > 15.5 |
| O=C1CC[C@@H](COC(=O)c2ccsc2NC(=O)[C@@H]2CCCN2)N1 | – | – | – | – | – | – | 9.46 µg/mL (≈ 28 µM) | 6.67 µg/mL (≈ 19.8 µM) | 191 µg/mL (≈ 566 µM) | 148 µg/mL (≈ 437 µM) | 88.6 µg/mL (≈ 263 µM) | 20.2 | 28.6 | 15.6 | 22.1 | 9.36 | 13.3 |
| CC(=O)N1/C(=C/c2ccc(-c3ccc(OC(F)(F)F)cc3)cc2)C(=O)c2ccccc21 | 1.44 µM (≈ 0.61 µg/mL) | 3.19 µM (≈ 1.35 µg/mL) | 8 µM | – | – | – | – | – | – | – | – | – | – | – | – | – | – |
| COC(=O)c1ccsc1NC(=O)[C@H]1CCCN1 | – | – | – | – | – | – | 10.8 µg/mL (≈ 42.6 µM) | 8.78 µg/mL (≈ 34.5 µM) | 91.4 µg/mL (≈ 359 µM) | 179 µg/mL (≈ 704 µM) | 95.8 µg/mL (≈ 377 µM) | 8.43 | 10.4 | 16.5 | 20.4 | 8.84 | 10.9 |
| CC(=O)N1/C(=C/c2ccc(-c3ccc(F)cc3)cc2)C(=O)c2ccccc21 | 1.26 µM (≈ 0.45 µg/mL) | 1.98 µM (≈ 0.708 µg/mL) | 9 µM | – | – | – | – | – | – | – | – | – | – | – | – | – | – |
| O=C(OC1CCCCC1)c1ccsc1NC(=O)[C@@H]1CCCN1 | – | – | – | – | – | – | 24.6 µg/mL (≈ 76.4 µM) | 4.92 µg/mL (≈ 15.3 µM) | 92.8 µg/mL (≈ 288 µM) | 162 µg/mL (≈ 504 µM) | 137 µg/mL (≈ 426 µM) | 3.76 | 18.9 | 6.59 | 33 | 5.57 | 27.9 |
| COC(=O)c1ccsc1NC(=O)[C@@H]1CCCN1 | – | – | – | – | – | – | 12 µg/mL (≈ 47.1 µM) | 3.35 µg/mL (≈ 13.2 µM) | > 250 µg/mL | > 250 µg/mL | > 250 µg/mL | > 20.9 | > 74.6 | > 20.9 | > 74.6 | > 20.9 | > 74.6 |
| C[C@]1(Cn2cc(COc3ccccn3)nn2)Cn2cc([N+](=O)[O-])nc2O1 | – | – | – | 2 µg/mL (≈ 5.6 µM) | 1 µg/mL (≈ 2.8 µM) | > 40 µg/mL | – | – | – | – | – | – | – | – | – | – | – |
| CC(=O)O[C@H]1C(=O)[C@@]2(C)[C@H]([C@H](OC(=O)c3ccccc3)[C@]3(O)C[C@H](OC(=O)[C@H](O)[C@@H](NC(=O)c4ccccc4)c4ccccc4)C(C)=C1C3(C)C)[C@]1(OC(C)=O)CO[C@@H]1C[C@@H]2O [PACLITAXEL] | – | – | – | – | – | – | – | – | 0.0048 µg/mL (≈ 0.00562 µM) | 0.0021 µg/mL (≈ 0.00246 µM) | > 10 µg/mL | – | – | – | – | – | – |
